The results in this text go back to patent US12180184B2, “Pyrimidopyrazolone derivative as Wee1 inhibitor and use thereof” (Wuxi Biocity Biopharmaceutics Co., Ltd., priority 2018, dated 2024).

One assay concerns the target T1, Wee1 (Homo sapiens, UniProt P30291).
T1 construct: Eurofins
Put plainly: In vitro enzyme inhibitory activity, Wee1 kinase radiometric ([33P]-ATP) assay at Eurofins. The settings on record: in vitro enzymatic activity; 40 min at room temperature, peptide substrate 500 μM. The format is biochemical. How it is done: The compounds used for experiments were all prepared in-house, and their chemical names and structural formulas were shown in the preparation examples for each compound. The experimental tests were carried out in Eurofins, which provided the experimental results.
In the Wee1 reaction system, 20 mM Tris-HCl, pH 8.5, 0.2 mM EDTA, 500 μM polypeptide substrate ([…]) (Sequence ID No. 1), 10 mM magnesium acetate and a certain concentration of […] (intensity of about 500 cpm/pmol) were added. Addition of Mg^2+ and ATP mixed solution initiated the reaction. Incubation was performed at room temperature for 40 min and 3% phosphate buffer was added to terminate the reaction. 10 μL of the reaction solution was filtered on a continuous filter P30, and washed with 75 mM phosphate buffer three times, and washed with methanol once, 5 min for each time. After drying, the scintillation counting was used to read the values.

Assay [1] has as its system Human pancreatic cancer PC-07-0049 subcutaneously transplanted tumor. Put plainly: In vivo pharmacodynamics study on human pancreatic cancer PC-07-0049 subcutaneously transplanted tumor model in nude mice. Set-up: species or system BALB/c nude mice. The settings on record: for TGI (%): PC-07-0049 tumor in BALB/c nude mice. An excerpt: Procedures: The selected experimental animals were BALB/c nude mice (6 animals per group), 6-8 weeks old, weigh 16-21 grams.
The establishment of the Human pancreatic carcinoma PC-07-0049 model was originally derived from surgically excised clinical samples, which was defined as the P0 generation after implantation in nude mice. The implantation of the tumor tissue of P0 generation into the next generation was defined as the P1 generation. The implantation was continued in nude mice in this way. The tumor of FP3 was revived through the P2 generation. The next generation generated by the FP3 generation was defined as FP4, and so on. The tumor tissue of the FP5 generation will be used for the drug efficacy test.
The PC-07-0049 FP5 tumor tissue was cut into small pieces (20-30 mm^3) after removing the necrotic tissue and was inoculated subcutaneously on the right back of each nude mouse. When the average tumor volume reached about 193 mm^3, according to the tumor volume, the animals were divided into random groups and administered.
The experimental index was to investigate whether tumor growth was inhibited, delayed or cured. The diameters of the tumors were measured with a vernier caliper twice a week. The tumor suppression efficacy of the compound was evaluated by TGI (%) or the relative tumor proliferation rate T/C (%). TGI (%) reflects the tumor growth inhibition rate. Calculation of TGI (%): TGI (%)=[(1−(Average tumor volume at the end of a treatment group−average tumor volume at the beginning of the treatment group))/(Average tumor volume at the end of treatment in the solvent control group−the average tumor volume at the beginning of treatment in the solvent control group)]×100%.

T1 sequence (P30291 whole entry): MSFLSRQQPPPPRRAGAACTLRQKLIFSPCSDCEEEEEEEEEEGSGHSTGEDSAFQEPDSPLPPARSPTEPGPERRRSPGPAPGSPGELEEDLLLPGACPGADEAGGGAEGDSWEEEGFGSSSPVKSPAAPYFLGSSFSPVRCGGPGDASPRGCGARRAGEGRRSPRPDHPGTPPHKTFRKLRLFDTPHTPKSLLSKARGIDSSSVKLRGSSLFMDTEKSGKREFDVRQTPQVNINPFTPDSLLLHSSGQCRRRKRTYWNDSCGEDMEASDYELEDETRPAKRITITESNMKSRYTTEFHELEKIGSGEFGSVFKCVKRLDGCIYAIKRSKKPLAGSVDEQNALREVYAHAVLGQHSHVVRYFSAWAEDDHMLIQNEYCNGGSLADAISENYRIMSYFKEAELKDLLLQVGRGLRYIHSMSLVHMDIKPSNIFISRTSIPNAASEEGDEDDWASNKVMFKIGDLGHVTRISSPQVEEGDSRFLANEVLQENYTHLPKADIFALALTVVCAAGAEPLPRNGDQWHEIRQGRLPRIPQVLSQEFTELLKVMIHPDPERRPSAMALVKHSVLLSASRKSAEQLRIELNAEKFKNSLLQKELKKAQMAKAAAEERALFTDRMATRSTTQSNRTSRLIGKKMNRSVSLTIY

For orientation: IC50 means the midpoint of a concentration-inhibition curve. A high value points to weaker potency in that assay. Turning to `CN1CCN(c2ccc(Nc3ncc4c(=O)n5n(c4n3)-c3cccc(n3)[C@@](C)(O)CC/C=C(/F)C5)cc2)CC1` [Compound 4], on Wee1, the IC50 is 110 nM. This counts as sub-micromolar.

On Wee1, `CN1CCN(c2ccc(Nc3ncc4c(=O)n5n(c4n3)-c3cccc(n3)[C@](C)(O)CC/C=C(\F)C5)cc2)CC1` [Compound 5] displayed an IC50 of 43 nM.

Turning to `Nc1ccn([C@@H]2O[C@H](CO)[C@@H](O)C2(F)F)c(=O)n1` [Gemcitabine, reference compound], in assay [1] (gemcitabine alone, 20 mg/kg twice per week), the “TGI (%)” value is 58%.

Regarding `CN1CCC(n2ccc3cc(Nc4ncc5c(=O)n6n(c5n4)-c4cccc(n4)[C@](C)(O)CC/C=C(/F)C6)ccc32)CC1` [Compound 2], it took 37 nM to reach half-maximal inhibition against Wee1 (IC50).

For the compound `C/C1=C/CC[C@@](C)(O)c2cccc(n2)-n2c3nc(Nc4ccc(N5CCN(C)CC5)cc4)ncc3c(=O)n2C1` [Compound 1], on Wee1, the midpoint of inhibition, the IC50, lay at 130 nM. This IC50 lies about 3.5-fold higher than the previous one.

Take `CN1CCN(c2ccc(Nc3ncc4c(=O)n5n(c4n3)-c3cccc(n3)[C@](C)(O)CC/C=C(/F)C5)cc2)CC1` [Compound 3]: at Wee1, the IC50 amounted to 28 nM. The “inhibitory effect on mouse tumor (in words)” value in assay [1] (combination of compound 3 and gemcitabine compared with gemcitabine alone, conclusion drawn from Table 2) is given as “significantly improve the inhibitory effect on mouse tumor”. Further, in assay [1] (compound 3 50 mg/kg once per day in combination with gemcitabine 20 mg/kg twice per week), the “TGI (%)” value was found to be 102%.
